Results: ChEMBL document CHEMBL1287736, “Design of a novel class of biphenyl CETP inhibitors” (Bioorg Med Chem Lett, 2010)

Assays:
[1] = target: T1, Cholesteryl ester transfer protein (Homo sapiens, UniProt P11597); assay: Inhibition of CETP-mediated neutral lipid transfer by fluorometric analysis
T1 sequence (P11597 whole entry): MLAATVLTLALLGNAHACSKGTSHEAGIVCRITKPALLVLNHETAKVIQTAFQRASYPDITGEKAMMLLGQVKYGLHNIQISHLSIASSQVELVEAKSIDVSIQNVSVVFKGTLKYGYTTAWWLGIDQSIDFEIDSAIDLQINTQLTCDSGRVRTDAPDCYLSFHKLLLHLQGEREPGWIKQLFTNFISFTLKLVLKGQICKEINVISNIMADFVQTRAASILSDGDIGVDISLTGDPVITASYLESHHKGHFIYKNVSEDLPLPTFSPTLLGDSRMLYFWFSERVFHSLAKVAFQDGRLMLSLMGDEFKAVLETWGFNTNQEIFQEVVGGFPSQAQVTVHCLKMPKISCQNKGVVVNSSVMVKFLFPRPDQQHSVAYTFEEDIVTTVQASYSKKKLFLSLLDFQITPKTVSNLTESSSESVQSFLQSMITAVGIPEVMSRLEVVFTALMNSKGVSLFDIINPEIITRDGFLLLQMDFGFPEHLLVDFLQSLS

Mus musculus [2] = assay: Cardioprotective activity in transgenic B6 mouse expressing cynomolgus monkey CETP assessed as increase in HDL-cholesterol level at 30 mg/kg, po BID measured after 24 hrs of first dose; type: functional
Mus musculus [3] = assay: Cardioprotective activity in transgenic B6 mouse expressing cynomolgus monkey CETP assessed as increase in HDL-cholesterol level at 3 mg/kg, po BID measured after 24 hrs of first dose; type: functional
Mus musculus [4] = assay: Cardioprotective activity in transgenic B6 mouse expressing cynomolgus monkey CETP assessed as increase in HDL-cholesterol level at 10 mg/kg, po BID measured after 24 hrs of first dose; type: functional
Mus musculus [5] = assay: Cardioprotective activity in transgenic B6 mouse expressing cynomolgus monkey CETP assessed as increase in HDL-cholesterol level at 1 mg/kg, po BID measured after 24 hrs of first dose; type: functional
Mus musculus [6] = assay: Cardioprotective activity in po dosed transgenic B6 mouse expressing cynomolgus monkey CETP assessed as increase in HDL-cholesterol level administered BID measured after 24 hrs of first dose; type: functional, organism-based
Mus musculus [7] = assay: Cardioprotective activity in transgenic B6 mouse expressing cynomolgus monkey CETP assessed as increase in HDL-cholesterol level at 100 mg/kg, po BID measured after 24 hrs of first dose; type: functional

Row | IC50 [1] [nM] | SMILES | also measured
1 | 753 | CCCc1ccc(OC)c(-c2ccc(C(F)(F)F)cc2CN(Cc2cc(C(F)(F)F)cc(C(F)(F)F)c2)C(=O)OC)c1 | 
2 | 2590 | COC(=O)N(Cc1cc(C(F)(F)F)cc(C(F)(F)F)c1)Cc1cc(C(F)(F)F)ccc1-c1cc(C(C)(C)C)ccc1OC | 
3 | 444 | COC(=O)N(Cc1cc(C(F)(F)F)cc(C(F)(F)F)c1)Cc1cc(C(F)(F)F)ccc1-c1cc(OC)ccc1OC | 
4 | 1600 | COC(=O)N(Cc1cc(C(F)(F)F)cc(C(F)(F)F)c1)Cc1cc(C(F)(F)F)ccc1-c1ccccc1OC | 
5 | 1430 | COC(=O)N(Cc1cc(C(F)(F)F)cc(C(F)(F)F)c1)Cc1cc(Cl)ccc1-c1cc(C(C)C)ccc1OC | 
6 | 4660 | COC(=O)N(Cc1cc(C(F)(F)F)cc(C(F)(F)F)c1)Cc1cc(N)ccc1-c1cc(C(C)C)ccc1OC | 
7 | 365 | COC(=O)N(Cc1cc(C(F)(F)F)cc(C(F)(F)F)c1)Cc1cc(I)ccc1-c1cc(C(C)C)ccc1OC | 
8 | 1730 | COC(=O)N(Cc1cc(C(F)(F)F)cc(C(F)(F)F)c1)Cc1cc(F)ccc1-c1cc(C(C)C)ccc1OC | 
9 | 108 | COC(=O)N(Cc1cc(C(F)(F)F)cc(C(F)(F)F)c1)Cc1cc(C(F)(F)F)ccc1-c1cc(C(C)C)ccc1OC | Activity (Mus musculus [2]): 86%; Activity (Mus musculus [3]): 43%; Activity (Mus musculus [4]): 54%; Activity (Mus musculus [5]): 37%; Activity (Mus musculus [6]): Dose-dependent effect
10 | 3830 | COC(=O)N(Cc1cc(C(F)(F)F)cc(C(F)(F)F)c1)Cc1ccccc1-c1cc(C(C)C)ccc1OC | 
11 | 117 | COC(=O)N(Cc1cc(C(F)(F)F)cc(C(F)(F)F)c1)Cc1cc(C(F)(F)F)ccc1-c1cc(C(C)C)c(F)cc1OC | 
12 | 4490 | CCOc1ccc(C)cc1-c1ccc(C(F)(F)F)cc1CN(Cc1cc(C(F)(F)F)cc(C(F)(F)F)c1)C(=O)OC | 
13 | 694 | COC(=O)N(Cc1cc(C(F)(F)F)cc(C(F)(F)F)c1)Cc1cc(OC)ccc1-c1cc(C(C)C)ccc1OC | 
14 | 210 | CCc1ccc(OC)c(-c2ccc(C(F)(F)F)cc2CN(Cc2cc(C(F)(F)F)cc(C(F)(F)F)c2)C(=O)OC)c1 | 
15 | 134 | COC(=O)N(Cc1cc(C(F)(F)F)cc(C(F)(F)F)c1)Cc1cc([N+](=O)[O-])ccc1-c1cc(C(C)C)ccc1OC | 
16 | 224 | COC(=O)N(Cc1cc(C(F)(F)F)cc(C(F)(F)F)c1)Cc1cc(C#N)ccc1-c1cc(C(C)C)ccc1OC | 
17 | 9510 | COC(=O)N(Cc1cc(C(F)(F)F)cc(C(F)(F)F)c1)Cc1cc(C(C)(C)C)ccc1-c1cc(C(C)C)ccc1OC | 
18 | 469 | COC(=O)N(Cc1cc(C(F)(F)F)cc(C(F)(F)F)c1)Cc1cc(C(F)(F)F)ccc1-c1cc(C)ccc1OC | Activity (Mus musculus [7]): 40%
